Laboratory results as given in paper PMC9363231, “High‐resolution analysis of individual spike peptide‐specific CD4 ^+ T‐cell responses in vaccine recipients and COVID‐19 patients” (Clinical & Translational Immunology, 2022).
Like-named read-outs stand apart in the source and are kept apart here.

Columns and labels:
[1] = system: HLA-DPB1*04:02; assay: In vitro HLA binding (data not shown); set-up: species or system human
[2] = molecular target: T1, HLA-DPB1*04:01 (Homo sapiens, UniProt P04440+P20036); assay: In vitro HLA binding (data not shown)
T1 sequence (P04440 30-258): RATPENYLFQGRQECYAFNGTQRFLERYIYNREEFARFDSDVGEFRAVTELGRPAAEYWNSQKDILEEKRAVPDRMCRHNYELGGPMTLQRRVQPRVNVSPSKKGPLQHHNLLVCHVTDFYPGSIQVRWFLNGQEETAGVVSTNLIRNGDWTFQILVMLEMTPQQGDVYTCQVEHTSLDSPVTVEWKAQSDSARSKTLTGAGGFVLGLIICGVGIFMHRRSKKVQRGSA
T1 sequence (P20036 29-260): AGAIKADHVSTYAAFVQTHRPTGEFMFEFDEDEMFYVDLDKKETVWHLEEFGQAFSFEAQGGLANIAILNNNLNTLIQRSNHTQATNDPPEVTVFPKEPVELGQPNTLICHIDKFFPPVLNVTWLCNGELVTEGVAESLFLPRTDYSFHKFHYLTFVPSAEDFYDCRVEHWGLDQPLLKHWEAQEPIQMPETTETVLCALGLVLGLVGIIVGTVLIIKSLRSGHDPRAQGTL

[3] = system: CD4+ T cells; assay type: cell-based, human
[4] = molecular target: HLA-DRB1*15:01 (Homo sapiens, UniProt P01903+P01911); assay: biochemical; assay type: binding
[5] = molecular target: HLA-DRB1*01:01 (Homo sapiens, UniProt P01903+P01911, A100R/D57E/F55L/F60I/F76Y/I96L/L162R/M171V/P40L/Q125E/R42F/V115G/Y59C); assay: biochemical; assay type: binding
[6] = molecular target: HLA-DRB1*07:01 (Homo sapiens, UniProt P01903+P01911, A100R/A102G/A103Q/D57E/D86V/E43K/F76Y/K127E/L162R/M171V/P40G/Q125H/Q99D/R33Q/R42Y/R54Q/S133A/S66F/T210M/V115G/Y107V/Y59L/Y89S); assay: biochemical; assay type: binding
[7] = molecular target: HLA-DRB1*03:01 (Homo sapiens, UniProt P01903+P01911, A100K/A102G/A103R/A169T/F55Y/I96L/K41T/L162R/M171V/P40S/Q125H/Q178H/Q39Y/R42S/S66N/T106N/T262R/W38E/Y61H); assay: biochemical; assay type: binding
[8] = molecular target: HLA-DRB1*04:05 (Homo sapiens, UniProt P01903+P01911, A100R/A169T/D86S/F76Y/I96L/K127E/L162R/M171V/N62H/P40V/Q125Y/R42H/S133A/S149N/S66Y/V115G/V209L/W38E); assay: biochemical; assay type: binding
[9] = molecular target: HLA-DRB1*11:01 (Homo sapiens, UniProt P01903+P01911, A100R/A169T/A87E/I96F/K41T/L162R/M171V/P40S/Q125H/Q178H/Q39Y/Q99D/R42S/S66Y/T262R/V115G/W38E); assay: biochemical; assay type: binding
[10] = molecular target: HLA-DRB1*09:01 (Homo sapiens, UniProt P01903+P01911, A100R/A103E/D57H/D86V/F55Y/F60I/F76Y/I96F/K127E/L162R/M171V/P40D/Q125H/Q99R/R33Q/R42F/S133A/S66N/T210M/V115G/W38K/Y107V/Y59G/Y89S); assay: biochemical; assay type: binding
[11] = molecular target: HLA-DRB1*13:02 (Homo sapiens, UniProt P01903+P01911, A100E/A169T/K41T/L162R/M171V/P40S/Q125H/Q178H/Q39Y/Q99D/R42S/S66N/T262R/V115G/W38E/Y61H); assay: biochemical; assay type: binding
[12] = molecular target: HLA-DRB1*12:01 (Homo sapiens, UniProt P01903+P01911, A100R/A169T/D57E/D86V/F55L/H45Y/K41T/L162R/M171V/P40S/Q125H/Q178H/Q39Y/Q99D/R42G/S66L/T262R/V114A/V67L/W38E/Y59H/Y61H/Y89S); assay: biochemical; assay type: binding
[13] = molecular target: HLA-DRB1*08:02 (Homo sapiens, UniProt P01903+P01911, A100R/A103L/A169T/F76Y/H45Y/I96F/K41T/L162R/M171V/P40S/Q125H/Q178H/Q39Y/Q99D/R218S/R42G/S66Y/V115G/W38E); assay: biochemical; assay type: binding
[14] = molecular target: HLA-DRB1*04:01 (Homo sapiens, UniProt P01903+P01911, A100K/A169T/F76Y/I96L/K127E/L162R/M171V/N62H/P40V/Q125Y/R42H/S133A/S149N/S66Y/V115G/V209L/W38E); assay: biochemical; assay type: binding

Chain of HLA-DRB1*13:02 (P01903 26-254 limits assumed, other chains not shown): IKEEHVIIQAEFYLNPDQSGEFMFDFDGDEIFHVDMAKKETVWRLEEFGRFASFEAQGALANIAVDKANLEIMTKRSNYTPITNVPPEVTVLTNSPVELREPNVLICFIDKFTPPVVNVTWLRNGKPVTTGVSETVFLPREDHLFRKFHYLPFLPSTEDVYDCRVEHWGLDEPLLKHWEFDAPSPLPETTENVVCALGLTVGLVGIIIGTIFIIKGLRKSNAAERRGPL
Chain of HLA-DRB1*03:01 (P01903 26-254, other chains not shown): as the sequence (P01903 26-254 limits assumed, other chains not shown) above
Chain of HLA-DRB1*11:01 (P01903 26-254 limits assumed, other chains not shown): as above

Row | SMILES | IC50 [5] [µM] | IC50 [6] [µM] | IC50 [7] [µM] | IC50 [8] [µM] | IC50 [9] [µM] | IC50 [10] [µM] | IC50 [11] [µM] | IC50 [12] [µM] | IC50 [13] [µM] | IC50 [14] [µM] | IC50 [4] [µM] | other results
1 | CC(C)C[C@H](NC(=O)[C@H](Cc1ccccc1)NC(=O)[C@@H]1CCCN1C(=O)[C@H](CC(=O)O)NC(=O)[C@H](CC(N)=O)NC(=O)[C@H](CS)NC(=O)[C@H](Cc1ccccc1)NC(=O)[C@H](CCC(N)=O)NC(=O)[C@H](Cc1ccccc1)NC(=O)[C@H](CCC(=O)O)NC(=O)[C@@H](N)CS)C(=O)NCC(=O)N[C@H](C(=O)N[C@@H](Cc1ccc(O)cc1)C(=O)N[C@@H](Cc1ccc(O)cc1)C(=O)O)C(C)C [peptide 27] |  |  |  |  |  |  |  |  |  |  |  | binding to HLA-DPB1*04:02 [1]: high affinity; binding to HLA-DPB1*04:01 [2]: high affinity; responding patients, DRB1*01:01 ([3]; responders / study participants carrying DRB1*01:01, CD4+ IFN-γ response, peptide 10 μg mL−1, after 14 days expansion): 4/6; responding patients, DRB1*03:01 ([3]; responders / study participants carrying DRB1*03:01, CD4+ IFN-γ response, peptide 10 μg mL−1, after 14 days expansion): 2/3; responding patients, DRB1*04:01 ([3]; responders / study participants carrying DRB1*04:01, CD4+ IFN-γ response, peptide 10 μg mL−1, after 14 days expansion): 4/4; responding patients, DRB1*07:01 ([3]; responders / study participants carrying DRB1*07:01, CD4+ IFN-γ response, peptide 10 μg mL−1, after 14 days expansion): 5/8; responding patients, DRB1*11:01 ([3]; responders / study participants carrying DRB1*11:01, CD4+ IFN-γ response, peptide 10 μg mL−1, after 14 days expansion): 3/3; responding patients, DRB1*12:01 ([3]; responders / study participants carrying DRB1*12:01, CD4+ IFN-γ response, peptide 10 μg mL−1, after 14 days expansion): 0/1; responding patients, DRB1*15:01 ([3]; responders / study participants carrying DRB1*15:01, CD4+ IFN-γ response, peptide 10 μg mL−1, after 14 days expansion): 3/7; response frequency (RF) / recognition rate of CD4+ T-cell response ([3]; share of the 35 participants with a CD4+ IFN-γ response to the peptide): 64%; IC50 ([4]; read-out: in vitro binding capacity (IC50), DRB1*15:01): 7.65 µM
2 | CC[C@H](C)[C@H](NC(=O)[C@H](Cc1ccccc1)NC(=O)[C@H](CO)NC(=O)[C@H](CCCNC(=N)N)NC(=O)[C@H](CCCCN)NC(=O)[C@H](CO)NC(=O)[C@@H]1CCCN1C(=O)[C@@H](N)CCCCN)C(=O)N[C@@H](CCC(=O)O)C(=O)N[C@@H](CC(=O)O)C(=O)N[C@@H](CC(C)C)C(=O)N[C@@H](CC(C)C)C(=O)N[C@@H](Cc1ccccc1)C(=O)N[C@@H](CC(N)=O)C(=O)N[C@@H](CCCCN)C(=O)O [peptide 163] | > 40 | 1.93 | 1.5 | 3.44 | 0.301 | 0.519 | > 40 | 3.98 | 3.41 | 0.451 | 6.81 | 
3 | CC(C)C[C@H](NC(=O)[C@H](C)NC(=O)[C@H](CC(C)C)NC(=O)[C@H](CC(C)C)NC(=O)[C@@H](NC(=O)[C@H](CCC(N)=O)NC(=O)[C@H](Cc1ccccc1)NC(=O)[C@H](CCCNC(=N)N)NC(=O)[C@@H](N)[C@@H](C)O)[C@@H](C)O)C(=O)N[C@@H](Cc1c[nH]cn1)C(=O)N[C@@H](CCCNC(=N)N)C(=O)N[C@@H](CO)C(=O)N[C@@H](Cc1ccc(O)cc1)C(=O)N[C@@H](CC(C)C)C(=O)N[C@H](C(=O)O)[C@@H](C)O [peptide 48] | 0.038 | 0.0039 | 13.8 | 0.794 | 0.014 | 0.011 | 29.9 | 0.018 | 0.177 | 0.337 | 0.005 | 
